Experimental findings from PubChem BioAssay (NCI) are described below.

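A five-concentration, 48-hour dose response in 96-well plates underlies each endpoint, interpolated linearly between surrounding concentrations. The concentration for 50% growth inhibition is given as GI50. Definition used: TGI = concentration required for complete inhibition of growth.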

Some test systems named below: HCC-2998 colon; HCT-15 colon; HOP-62 NSCLC; K-562 leukemia; MALME-3M melanoma; OVCAR-3 ovarian; RXF 393 renal; SR leukemia.
Assay in all cases: NCI tumour cell line growth inhibition, 48 h

As to `CN(C)CCCSc1ccccc1NC1=C(Cl)C(=O)C(Nc2ccccc2SCCCN(C)C)=C(Cl)C1=O`, the GI50 in the test on HCC-2998 colon was 2.11 µM; in the test with HCT-15 colon, 1.69 µM; with HOP-62 NSCLC it was 3.59 µM; in the test on K-562 leukemia, 2.08 µM; with MALME-3M melanoma it was 1.85 µM; in the test with OVCAR-3 ovarian it was 1.53 µM. The GI50 in the test on RXF 393 renal was 1.92 µM; with SR leukemia, 2.15 µM. For the same compound, the TGI in the test on HCC-2998 colon is 5.49 µM; in the test on HCT-15 colon, 3.32 µM; with HOP-62 NSCLC, 10.6 µM; in the test with K-562 leukemia it was 5.92 µM; with MALME-3M melanoma it was 3.6 µM; in the test with OVCAR-3 ovarian it was 2.89 µM. For the same compound, the TGI in the test with RXF 393 renal came out at 3.35 µM; in the test with SR leukemia it was 6.05 µM.
For `Cc1ccc(C=C2C(Cl)=C(Cl)C(Cl)=C2Cl)cc1`, the GI50 is 1.47 µM with HCC-2998 colon; 1.33 µM in the test with HCT-15 colon; 2.13 µM with HOP-62 NSCLC; 0.202 µM with K-562 leukemia; 0.933 µM in the test on MALME-3M melanoma; 0.361 µM in the test with OVCAR-3 ovarian. For the same compound, the GI50 was 0.308 µM with RXF 393 renal and 0.166 µM with SR leukemia. Also, the TGI with HCC-2998 colon turned out to be 2.93 µM; in the test with HCT-15 colon, 4.88 µM; in the test with HOP-62 NSCLC it was 4.44 µM; in the test on K-562 leukemia, 0.522 µM; with MALME-3M melanoma, 2.62 µM; in the test on OVCAR-3 ovarian it was 1.06 µM. Moreover, the TGI was determined as 0.906 µM with RXF 393 renal and 0.444 µM in the test on SR leukemia.
`COC(=O)c1cc2oc(/C=C3/SC(=S)N(N)C3=O)cc2n1Cc1ccccc1`: the GI50 is 3.89 µM in the test with HCC-2998 colon; 7.65 µM with HCT-15 colon; 6.59 µM with HOP-62 NSCLC; 2.08 µM in the test with K-562 leukemia; 1.91 µM in the test with MALME-3M melanoma; 2.17 µM in the test with OVCAR-3 ovarian. Further, the figures for the GI50 with RXF 393 renal and in the test on SR leukemia were 2.01 µM and above 21.4 µM, respectively. The TGI in the test with HCC-2998 colon was 19.1 µM; in the test with HCT-15 colon, above 29.9 µM; in the test on HOP-62 NSCLC, 25.6 µM; with K-562 leukemia, above 21.7 µM; in the test on MALME-3M melanoma, 17.7 µM; with OVCAR-3 ovarian, 6.73 µM. For the same compound, the TGI in the test on RXF 393 renal was 12.2 µM; in the test with SR leukemia, above 100 µM.
In the case of `C#Cc1cccc(Nc2ncnc3ccc(OCCCCNCCS(C)(=O)=O)cc23)c1`, the GI50 is 7.83 µM in the test with HCC-2998 colon; 7.41 µM with HCT-15 colon; 11.5 µM in the test on HOP-62 NSCLC; 6.25 µM in the test on K-562 leukemia; 4.88 µM in the test on MALME-3M melanoma; 6.5 µM in the test with OVCAR-3 ovarian. Moreover, the GI50 in the test with RXF 393 renal was 5.32 µM; with SR leukemia, 6.55 µM. Besides, the TGI in the test with HCC-2998 colon was above 25 µM; in the test with HCT-15 colon it was above 25 µM; in the test with HOP-62 NSCLC, above 25 µM; in the test on K-562 leukemia it was 14.6 µM; in the test on MALME-3M melanoma it was 9.47 µM; in the test on OVCAR-3 ovarian, above 23.6 µM. For the same compound, the TGI in the test on RXF 393 renal was above 22.6 µM; in the test on SR leukemia it was 15.3 µM.
As for `CC(C)[C@@](O)(c1ccc2cc(OC(F)F)c(OC(F)F)cc2c1)c1cn[nH]n1`, the GI50 in the test with HCC-2998 colon was 18.2 µM; with HCT-15 colon, 15.3 µM; with HOP-62 NSCLC, 15.3 µM; in the test on K-562 leukemia, 19.3 µM; in the test on MALME-3M melanoma, 16.8 µM; with OVCAR-3 ovarian it was 16.3 µM. The GI50 with RXF 393 renal is 15.4 µM; in the test on SR leukemia it was 17.3 µM. Moreover, the TGI stood at 35.8 µM in the test on HCC-2998 colon; 37.4 µM in the test on HCT-15 colon; 30.7 µM in the test on HOP-62 NSCLC; 55.3 µM with K-562 leukemia; 39.2 µM in the test on MALME-3M melanoma; 37.1 µM in the test with OVCAR-3 ovarian. Moreover, the results for the TGI in the test with RXF 393 renal and in the test on SR leukemia were 29.8 µM and 44.7 µM, respectively.
Turning to `O=c1cnnc(N/N=C/c2ccccc2O)[nH]1`, the GI50 with HCC-2998 colon was 3.02 µM; with HCT-15 colon it was 0.539 µM; with HOP-62 NSCLC it was 6.01 µM; in the test on K-562 leukemia, 0.163 µM; with MALME-3M melanoma it was 0.426 µM; in the test on OVCAR-3 ovarian, 0.324 µM. In addition, the GI50 with RXF 393 renal is 5.16 µM; in the test with SR leukemia, 1.51 µM. For the same compound, the TGI is above 100 µM with HCC-2998 colon; above 100 µM in the test with HCT-15 colon; 53.7 µM in the test with HOP-62 NSCLC; above 100 µM with K-562 leukemia; 47.5 µM in the test on MALME-3M melanoma; above 100 µM with OVCAR-3 ovarian. Also, the TGI with RXF 393 renal is 37.7 µM; in the test on SR leukemia, above 100 µM.
For `COc1ccc(NC2=C(I)C(=O)c3ncccc3C2=O)cc1`, the GI50 was 1.45 µM in the test with HCC-2998 colon; 0.516 µM in the test on HCT-15 colon; 0.457 µM with HOP-62 NSCLC; 0.533 µM in the test with K-562 leukemia; 1.19 µM in the test on MALME-3M melanoma; 0.27 µM with OVCAR-3 ovarian. The figures for the GI50 with RXF 393 renal and with SR leukemia were 1.41 µM and 0.546 µM, respectively. The TGI was 3.01 µM with HCC-2998 colon; 2.42 µM with HCT-15 colon; 1.87 µM in the test with HOP-62 NSCLC; 5.19 µM in the test with K-562 leukemia; 2.44 µM in the test on MALME-3M melanoma; 1.13 µM in the test with OVCAR-3 ovarian. The results for the TGI in the test on RXF 393 renal and in the test on SR leukemia were 2.82 µM and 9.61 µM, respectively.
In the case of `CN(C)CC(=O)Nc1ccc2ncnc(Nc3ccc(Oc4cccc(C(F)(F)F)c4)c(Cl)c3)c2c1`, the GI50 was 1.66 µM with HCC-2998 colon; 1.48 µM in the test on HCT-15 colon; 2.09 µM in the test with HOP-62 NSCLC; 2.21 µM in the test on K-562 leukemia; 1.68 µM in the test with MALME-3M melanoma; 1.61 µM with OVCAR-3 ovarian. Besides, the GI50 in the test on RXF 393 renal is 1.61 µM; with SR leukemia it was 2.46 µM. Besides, the TGI in the test on HCC-2998 colon is 3.19 µM; with HCT-15 colon it was 3.1 µM; in the test on HOP-62 NSCLC, 5.71 µM; in the test with K-562 leukemia, 6.52 µM; with MALME-3M melanoma, 3.36 µM; with OVCAR-3 ovarian, 3.51 µM. For the same compound, the TGI with RXF 393 renal stood at 3.25 µM; in the test on SR leukemia, 9.15 µM.
Turning to `CC1=C(C)C(=O)O[C@@H]([C@](C)(O)[C@]2(O)CC[C@@]3(O)[C@@H]4C[C@H](O)[C@]5(O)[C@@H](O)C=CC(=O)[C@]5(C)[C@H]4CC[C@]23C)C1`, the TGI with HCC-2998 colon, in the test on HCT-15 colon, in the test on HOP-62 NSCLC, with K-562 leukemia, in the test with MALME-3M melanoma and in the test on OVCAR-3 ovarian was above 100 µM each time. The TGI in the test on RXF 393 renal is above 100 µM; in the test on SR leukemia it was 84.3 µM.
On to `C/C(=N\OCC(O)CNCCSCc1ccccc1)c1ccccc1Cl` (centres undefined), for which the TGI in the test with HCC-2998 colon came to 40.9 µM; in the test with HCT-15 colon, 41.1 µM; in the test with HOP-62 NSCLC, 38.8 µM; in the test with K-562 leukemia it was 92.9 µM; in the test with MALME-3M melanoma, 37.2 µM; with OVCAR-3 ovarian it was 34.6 µM. Besides, the TGI with RXF 393 renal was determined as 37 µM; with SR leukemia, 78.3 µM.
